US20090291953A1, “PHAR[…] OF REBOXETINE” (Pfizer Inc, priority 2002, published 2009)

Key:
Type in all cases: physicochemical
[1] = Hygroscopicity test by Dynamic Moisture Sorption Gravimetry (DVS 1000); conditions: for Effects of moisture update: reversibility / retention of water uptake: DVS sorption/desorption, dependent on relative environmental humidity; for Water uptake %: 25° C.
Source text: The water uptake of succinate and fumarate salts of S,S-reboxetine was investigated by submitting a sample of such salts to a hygroscopicity test by means of a DVS 1000 (SMS) according to the principle of Dynamic Moisture Sorption Gravimetry (DMSG). The apparatus is a “controlled atmosphere microbalance” where the weighed sample is exposed to programmed variations of the relative humidity (RH) at a constant and controlled temperature. The measured parameters (weight, time and RH), reported in Excel worksheets, allowed obtaining hygroscopicity curves over the tested RH range. Multiple sorption/desorption cycles between 0% and 90% RH were performed at 25° C. Progressive variations of RH were of 10%; they were operated by the software at the equilibration of the sample weight. This condition was defined at a constant rate of percent weight variation 0.005%/min (average of 5 minutes survey). The experimental results were reported in the DVS Isotherm Reports and Isotherm Plots.
The obtained results are summarized in the Table V, reporting the water uptake expressed as percent change in mass, and FIG. 4.

[2] = DSC analyses on samples recovered after DVS tests; conditions: for DSC profile after equilibration at high humidity (DVS test method): maximum relative humidity of 90% at 25° C., equilibration up to 0.005%/min or no more than 360 minutes; for Modification of solid structure after DVS test (observed by DSC): tested sample after DVS sorption/desorption
Experimental: DSC analyses were carried out with a Perkin-Elmer DSC-7 apparatus. Aluminium DSC pans were loaded with about of 2 mg of sample. The temperature range of analysis was between 30° and 210° C. The samples were analyzed under nitrogen flow (to eliminate oxidative and pyrrolitic effects) at a heating rate of 10° C./min.
DSC analyses were executed as reported above also on the samples recovered after DVS tests, executed according to the DMSG principle. As shown below in FIG. 5, DSC profiles of SS-reboxetine succinate and fumarate salts were unchanged after equilibration at high humidity according to the DVS test method (maximum relative humidity of 90% at 25° C. and equilibration up to 0.005%/min or no more than 360 minutes).

[3] = Thermogravimetric Analysis (TGA), volatile content
Experimental: The volatile content measured by means of Thermogravimetric Analysis (TGA) was relevant: in fact, a weight loss of about 2% was detected upon heating showing a related thermal feature. Whereas for SS-reboxetine fumarate and succinate salts a negligible […] weight loss was measured.

[4] = listed as S,S-reboxetine mesylate

Structure (SMILES): CCOc1ccccc1O[C@@H](c1ccccc1)[C@@H]1CNCCO1.O=C(O)/C=C/C(=O)O (single isomer, unassigned) [Fumarate salt, Reboxetine S,S Enantiomer Fumarate Salt]
- Effects of moisture update: reversibility / retention of water uptake ([1]; Fumarate Salt): Reversible water
- Effects of moisture update: reversibility / retention of water uptake ([1]; listed as fumarate salt, Fumarate Salt): reversible
- Water uptake % ([1]; Relative Humidity 20%): 0.06%
- Water uptake % ([1]; Relative Humidity 35%): 0.11%
- Water uptake % ([1]; Relative Humidity 50%): 0.16%
- Water uptake % ([1]; Relative Humidity 65%): 0.21%
- Water uptake % ([1]; Relative Humidity 80%): 0.31%
- Water uptake % ([1]; Relative Humidity 90%): 0.47%
- DSC profile after equilibration at high humidity (DVS test method) [2]: unchanged
- Weight loss upon heating (TGA), in words [3]: negligible

Structure (SMILES): CCOc1ccccc1O[C@@H](c1ccccc1)[C@@H]1CNCCO1.O=C(O)CCC(=O)O (single isomer, unassigned) [Succinate salt, Reboxetine S,S Enantiomer Succinate Salt]
- Effects of moisture update: reversibility / retention of water uptake ([1]; Succinate Salt): Reversible water
- Effects of moisture update: reversibility / retention of water uptake ([1]; listed as succinate salt, Succinate Salt): reversible
- Water uptake % ([1]; Relative Humidity 20%): 0.03%
- Water uptake % ([1]; Relative Humidity 35%): 0.06%
- Water uptake % ([1]; Relative Humidity 50%): 0.10%
- Water uptake % ([1]; Relative Humidity 65%): 0.14%
- Water uptake % ([1]; Relative Humidity 80%): 0.21%
- Water uptake % ([1]; Relative Humidity 90%): 0.29%
- DSC profile after equilibration at high humidity (DVS test method) [2]: unchanged
- Weight loss upon heating (TGA), in words [3]: negligible

Structure (SMILES): CCOc1ccccc1O[C@H](c1ccccc1)[C@H]1CNCCO1.CS(=O)(=O)O [Mesylate salt, S,S-reboxetine mesylate]
- Effects of moisture update: reversibility / retention of water uptake [1]: Retention of water
- Effects of moisture update: reversibility / retention of water uptake [1, 4]: only partially eliminated
- Water uptake retained after re-equilibration ([1]; DVS, after re-equilibration): about 4%
- Amount of water adsorbed (uptake) in hygroscopicity test ([1]; DVS, at 90% RH printed for mesylate salt): up to 9%
- Desorption Cycle Water content % (percent change in mass) ([1]; Relative Humidity 0%): 4.3%
- Sorption Cycle Water content % (percent change in mass) ([1]; Relative Humidity 0%): 0.0%
- Desorption Cycle Water content % (percent change in mass) ([1]; Relative Humidity 20%): 4.5%
- Sorption Cycle Water content % (percent change in mass) ([1]; Relative Humidity 20%): 0.5%
- Desorption Cycle Water content % (percent change in mass) ([1]; Relative Humidity 35%): 4.6%
- Sorption Cycle Water content % (percent change in mass) ([1]; Relative Humidity 35%): 0.6%
- Desorption Cycle Water content % (percent change in mass) ([1]; Relative Humidity 50%): 4.6%
- Sorption Cycle Water content % (percent change in mass) ([1]; Relative Humidity 50%): 0.7%
- Desorption Cycle Water content % (percent change in mass) ([1]; Relative Humidity 65%): 4.6%
- Sorption Cycle Water content % (percent change in mass) ([1]; Relative Humidity 65%): 0.9%
- Desorption Cycle Water content % (percent change in mass) ([1]; Relative Humidity 80%): 4.7%
- Sorption Cycle Water content % (percent change in mass) ([1]; Relative Humidity 80%): 4.5%
- Desorption Cycle Water content % (percent change in mass) ([1]; Relative Humidity 90%): 8.7%
- Sorption Cycle Water content % (percent change in mass) ([1]; Relative Humidity 90%): 8.7%
- Effects of moisture update: change in crystalline form ([1]; after water uptake in DVS test): Irreversible change
- DSC profile after equilibration at high humidity (DVS test method) [2]: complete destructuration
- Modification of solid structure after DVS test (observed by DSC) [2, 4]: solid state modification was observed
- Modification of solid structure after DVS test (observed by DSC) ([2]; listed as mesylate salt): loss of crystallinity
- Weight loss upon heating (volatile content, TGA) [3]: about 2%
